Residues, ends and D or L forms follow the SMILES beside them.
Tests used:
[1] = target: cathepsin S (Homo sapiens, UniProt P25774); assay: Kinetic assay for cathepsin S; format: biochemical
Method: (§1) For assays of cathepsin B, L, and S, cruzain inhibitors were evaluated in reaction mixtures containing a buffer of sodium acetate (pH 5.5), 1 mM CHAPS, 1 mM Na2EDTA, and 5 mM DTT at 25° C. The substrate Cbz-Phe-Arg-AMC was dissolved in 100% DMSO, as were all inhibitors, and aliquots of both substrates and inhibitors were added to 0.25 mL reaction mixtures to final concentrations of 10% DMSO (v/v). […] Cruzain inhibitors were added at seven concentrations and one fixed concentration of Cbz-Phe-Arg-AMC, and time courses of AMC formation were analyzed as with cruzain.

[2] = target: cathepsin B (Homo sapiens, UniProt P07858); assay: Kinetic assay for cathepsin B; format: biochemical; details: substrate, pH 5.5, 25° C.
[3] = target: T1, cathepsin L (Homo sapiens, UniProt P07711); assay: Kinetic assay for cathepsin L; format: biochemical
T1 sequence (P07711 114-333): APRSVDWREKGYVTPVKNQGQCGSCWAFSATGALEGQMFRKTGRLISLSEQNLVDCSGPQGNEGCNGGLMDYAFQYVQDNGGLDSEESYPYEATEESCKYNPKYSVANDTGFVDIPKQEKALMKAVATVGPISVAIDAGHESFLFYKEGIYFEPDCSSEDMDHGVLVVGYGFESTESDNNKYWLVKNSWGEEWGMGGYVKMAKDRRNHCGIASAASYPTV
Method: as §1

[4] = test system: pseudovirus SARS CoV-1; details: cited from earlier work
[5] = target: cruzain (Trypanosoma cruzi, UniProt P25779); assay: Cruzain inactivation; format: biochemical
Chain of cruzain (P25779 123-337): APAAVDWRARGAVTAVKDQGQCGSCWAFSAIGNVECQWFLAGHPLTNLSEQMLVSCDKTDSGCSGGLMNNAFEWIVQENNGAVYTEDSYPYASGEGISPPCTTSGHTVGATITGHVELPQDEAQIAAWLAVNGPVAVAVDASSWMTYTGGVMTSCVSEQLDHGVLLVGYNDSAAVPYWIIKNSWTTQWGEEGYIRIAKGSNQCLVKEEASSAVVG

[6] = test system: Vero E6 cells; assay: Bio-orthogonal labeling of protein targets in Vero E6 cells, in-gel fluorescence; format: cell-based, African green monkey; details: for labelling of the 24-25-kDa protein by K11777-alkyne after pre-treatment: pre-treatment 1 μM K777, 1 μM K777 alkyne, SARS-CoV-2 infected and uninfected cells
Method: 4N-propargyl-K11777 was added at concentrations of 1-10 µM to Vero E6 (African green monkey kidney cells), with and without infection by SARS CoV-2 viral particles at an multiplicity of infection of 0.1. […] Cells growth continued for 4 days, followed by harvest, and ˜ 20 million cells were suspended in 1 mL of lysis buffer (200 mM Tris, 4% CHAPS, 1M NaCl, 8 M Urea, pH=8) and protease inhibitor cocktail (Sigma Aldrich) at a ratio of 50:1 (v/v). Cells were lysed by sonication (ThermoFisher Scientific), with the sample on ice, with a ⅛-inch probe at 20% amplitude for 3-seconds, three times with a minute delay between pulses. The cell debris was pelleted (10,000×g for 10 minutes) followed by removal of the supernatant and determination of protein concentration by BCA assay (ThermoFisher Scientific). Labeling of the K11777-alkyne-treated cells was performed in a stepwise fashion whereby 100 mM TBTA in 1:4 DMSO: n-butanol (v/v) was added to 1 mM CuSO4 in water, followed by the addition of 20 mM Cy7-azide (Click Chemistry Tools) in DMSO, 24 μg cell lysate, and finally 2.5 mM sodium ascorbate in water. This reaction was incubated at room temperature for 1-3 hours and quenched by the addition ice-cold methanol (200 μL), chloroform (75 μL), and water (150 μL) followed by vortexing and centrifugation at 15,000 RPM at 4° C. for 15 minutes. […] Then, 4× loading dye (240 mM Tris-HCl, 8% SDS (w/v), 0.004% bromophenol blue (to avoid fluorescence from the dye), 5 mM DTT, and MilliQ water was added to a total volume of 24 μL. Samples were heated to 95° C. for 5 minutes followed by a brief centrifugation at 5,000 RPM for 1 min. The protein-standards ladder (Bio-Rad, Precision Plus Protein™ Dual Color Standards) was diluted 10,000 fold in 4% SDS buffer, loading dye, and water and loading dye 4× loading dye and water to avoid strong fluorescence from the ladder during imaging. Samples were analyzed on a 12% Bis-Tris Nu-PAGE gel (Invitrogen). […] Densitometry of in gel fluorescence was conducted using ImageJ. The gels were also analyzed by Coomassie Brilliant Blue R-250 staining (Bio-Rad).

[7] = target: T1, cathepsin L; assay: Proteolysis of SARS CoV-2 Spike protein by cathepsin L; format: biochemical; details: pH 5.5
[8] = test system: host cells; assay: Toxicity in host cells
[9] = test system: Vero E6 cells; assay: Azide enrichment and proteomic analysis of K11777-alkyne treated Vero E6 cells; format: cell-based, African green monkey
Method: Cell lysates of Vero E6 cells were prepared as described above. Enrichment of alkyne-modified proteins was conducted using the Click-&-Go Protein Enrichment Kit (Click Chemistry Tools) and the protocols thereof. Proteolysis of the resin-bound, enriched proteins, which had been reduced with DTT and alkylated with iodoacetamide, was conducted by addition of 1 μg of Trypsin Gold (Promega) at 37° C. overnight with gentle agitation. The digested peptides were then eluted from the column and subjected to desalting using Pierce™ C18 Tips, 100 μL bed (Thermo Fisher Scientific). The desalted peptides were concentrated to dryness via speed vacuum centrifugation, and suspended in 25 mM ammonium bicarbonate. […]
Data were processed using MaxQuant 1.6.14. Label-free quantification was enabled at the default parameters. […] MaxQuant result files were analyzed using Perseus 1.6.14. Reverse hits, potential contaminant hits, hits only identified by site and hits for which only one peptide was detected were removed. Only proteins which were not detected in the control were considered. […] Finally, proteins which were detected in at least two test samples were clustered based on highest to lowest intensity in the 5 μM and 10 μM treated columns at default parameters (column clustering was disabled) and plotted as a heat map.

Chain of cathepsin S (P25774 115-331): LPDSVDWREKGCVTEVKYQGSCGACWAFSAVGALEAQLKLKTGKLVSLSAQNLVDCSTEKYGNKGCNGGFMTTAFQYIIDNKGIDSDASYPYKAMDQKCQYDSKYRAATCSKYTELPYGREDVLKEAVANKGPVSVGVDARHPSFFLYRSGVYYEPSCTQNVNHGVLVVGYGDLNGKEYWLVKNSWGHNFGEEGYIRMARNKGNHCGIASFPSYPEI

SMILES: Cc1cc(=O)oc2cc(NC(=O)[C@H](CCCN=C(N)N)NC(=O)[C@H](Cc3ccccc3)NC(=O)OCc3ccccc3)ccc12 [Cbz-Phe-Arg-AMC, reference compound] (HELM PEPTIDE1{[O=C(OCc1ccccc1)[*:2]].F.R.[Cc1cc(=O)oc2cc(N[*:1])ccc12]}$$$$V2.0)
- Michaelis constant ([1]; substrate, pH 5.5, 25° C.): 60 µM
- Michaelis constant [2]: 150 µM
- Michaelis constant ([3]; substrate, pH 5.5, 25° C.): 2.9 µM

SMILES: CN1CCN(C(=O)N[C@@H](Cc2ccccc2)C(=O)N[C@H](/C=C/S(=O)(=O)c2ccccc2)CCc2ccccc2)CC1 [K11777, 4-methyl-N-((S)-1-oxo-3-phenyl-1-(((S,E)-5-phenyl-1-(phenylsulfonyl)pent-1-en-3-yl)amino)propan-2-yl)piperazine-1-carboxamide]
- infection of Vero, A549 and other mammalian cells by pseudovirus SARS CoV-1 [4]: exceptionally potent inhibitor
- inactivation of cruzain [5]: exceptionally potent, covalent inactivator
- inactivation of cathepsin S [1]: exceptionally potent, covalent inactivator
- labelling of the 24-25-kDa protein by K11777-alkyne after pre-treatment [6]: prevented labelling
- labelling of the 24-25-kDa protein by K11777-alkyne after pre-treatment ([6]; listed as K777): blocked
- cathepsin L-catalyzed proteolysis of SARS CoV-2 Spike protein [7]: blocked
- cathepsin L-catalyzed proteolysis of SARS CoV-2 Spike protein ([7]; listed as K777): inhibited
- toxicity in host cells [8]: No toxicity
- inactivation of cathepsin L [3]: exceptionally potent, covalent inactivator

SMILES: C#CCN1CCN(C(=O)N[C@@H](Cc2ccccc2)C(=O)N[C@H](/C=C/S(=O)(=O)c2ccccc2)CCc2ccccc2)CC1 [N4-Propargyl-K11777, N-((S)-1-oxo-3-phenyl-1-(((S,E)-5-phenyl-1-(phenylsulfonyl)pent-1-en-3-yl)amino)propan-2-yl)-4-(prop-2-yn-1-yl)piperazine-1-carboxamide]
- most enriched labeled proteins (bead capture, mass spectrometry) ([9]; listed as K777 alkyne): cathepsins B and L are strongly enriched
- most enriched labeled proteins (bead capture, mass spectrometry) ([9]; listed as N4-propargyl analogue of K11777): cathepsins L and B
- proteins labeled in Vero E6 cells ([6]; infected and un-infected with CoV-2, Cy7 azide): labels only cellular proteins of an apparent molecular weight of 24-25 kDa

Source: patent US20230301988A1 (priority 2020, published 2023)
